Source: PubChem BioAssay AID1745844 (Carcinogenic Potency Database (CPDB), 2022)
Several values for one entry are separate records, joined by “and”; a condition that tells them apart may be missing. Identical values can stand only once. Activity calls are given as the source filed them. The rule behind the calls is not given here.

Tested on: rodent lifetime carcinogenesis bioassay, tumor incidence TD50
Test: chronic cancer bioassays in animals – CPDB, compiled studies (AID 1745844)
[1] = mouse, strain B6C3F1, females, in feed, site: any site (literature study), lesion: several types, types named in the paper, dosed 103 weeks, study length 105 weeks
[2] = mouse, strain B6C3F1, females, in feed, site: liver, lesion: hepatocellular adenoma + hepatocellular carcinoma + neoplastic nodule, dosed 103 weeks, study length 105 weeks
[3] = mouse, strain B6C3F1, females, in feed, site: liver, lesion: hepatocellular adenoma + hepatocellular carcinoma, dosed 103 weeks, study length 105 weeks

SMILES: CC(=O)Nc1ccc(N=Nc2cc(C)ccc2O)cc1
- TD50 (mouse, strain B6C3F1, females, in feed, site: all sites, lesion: leukemia + lymphoma, dosed 103 weeks, study length 105 weeks): 1510 mg/kg/day
- TD50 (mouse, strain B6C3F1, females, in feed, site: all sites, lesion: lymphoma, dosed 103 weeks, study length 105 weeks): 1680 mg/kg/day
- TD50 [1]: 769 mg/kg/day
- TD50 [2]: 1020 mg/kg/day
- TD50 [3]: 1020 mg/kg/day
- TD50 (mouse, strain B6C3F1, females, in feed, site: liver, lesion: hepatocellular adenoma, dosed 103 weeks, study length 105 weeks): 1340 mg/kg/day
- TD50 (mouse, strain B6C3F1, males, in feed, site: any site (literature study), lesion: several types, types named in the paper, dosed 103 weeks, study length 104 weeks): 17200 mg/kg/day
- TD50 (mouse, strain B6C3F1, males, in feed, site: lung, lesion: alveolar/bronchiolar adenoma + alveolar/bronchiolar carcinoma, dosed 103 weeks, study length 104 weeks): 2440 mg/kg/day
- TD50 (mouse, strain B6C3F1, males, in feed, site: lung, lesion: alveolar/bronchiolar adenoma, dosed 103 weeks, study length 104 weeks): 2150 mg/kg/day (inactive)
- carcinogen call (rat, strain Fischer 344, females, in feed, site: any site (literature study), lesion: several types, types named in the paper, dosed 103 weeks, study length 104 weeks): negative (inactive)
- TD50 (rat, strain Fischer 344, females, in feed, site: liver, lesion: hepatocellular adenoma + hepatocellular carcinoma + neoplastic nodule, dosed 103 weeks, study length 104 weeks): 46800 mg/kg/day
- TD50 (rat, strain Fischer 344, males, in feed, site: liver, lesion: hepatocellular adenoma + hepatocellular carcinoma + neoplastic nodule, dosed 103 weeks, study length 104 weeks): 833 mg/kg/day
- TD50 (rat, strain Fischer 344, males, in feed, site: liver, lesion: hepatocellular carcinoma + neoplastic nodule, dosed 103 weeks, study length 104 weeks): 833 mg/kg/day
- TD50 (rat, strain Fischer 344, males, in feed, site: liver, lesion: neoplastic nodule, dosed 103 weeks, study length 104 weeks): 380 mg/kg/day
- TD50 (rat, strain Fischer 344, males, in feed, site: stomach, lesion: all tumors, dosed 103 weeks, study length 104 weeks): 4090 mg/kg/day

SMILES: OCC(O)CO
- TD50 (rat, strain Long-Evans, both sexes, in feed, site: any site (literature study), lesion: several types, types named in the paper, dosed 105 weeks, study length 105 weeks): 38300 mg/kg/day (inactive) and 12300 mg/kg/day (inactive)

SMILES: CCCl
- TD50 (mouse, strain B6C3F1, females, inhaled, site: all sites, lesion: malignant lymphoma, histiocytic type + malignant lymphoma, mixed type + malignant lymphoma, lymphocytic type + malignant lymph, dosed 100 weeks, study length 100 weeks): 9960 mg/kg/day
- TD50 (mouse, strain B6C3F1, females, inhaled, site: any site (literature study), lesion: several types, types named in the paper, dosed 100 weeks, study length 100 weeks): 1380 mg/kg/day
- TD50 (mouse, strain B6C3F1, females, inhaled, site: liver, lesion: hepatocellular adenoma + hepatocellular carcinoma + neoplastic nodule, dosed 100 weeks, study length 100 weeks): 7220 mg/kg/day
- TD50 (mouse, strain B6C3F1, females, inhaled, site: liver, lesion: hepatocellular adenoma + hepatocellular carcinoma, dosed 100 weeks, study length 100 weeks): 7220 mg/kg/day
- TD50 (mouse, strain B6C3F1, females, inhaled, site: liver, lesion: hepatocellular carcinoma, dosed 100 weeks, study length 100 weeks): 7580 mg/kg/day
- TD50 (mouse, strain B6C3F1, females, inhaled, site: lung, lesion: alveolar/bronchiolar adenoma + alveolar/bronchiolar carcinoma, dosed 100 weeks, study length 100 weeks): 8640 mg/kg/day
- TD50 (mouse, strain B6C3F1, females, inhaled, site: uterus, lesion: carcinoma, dosed 100 weeks, study length 100 weeks): 1810 mg/kg/day
- TD50 (mouse, strain B6C3F1, males, inhaled, site: any site (literature study), lesion: several types, types named in the paper, dosed 100 weeks, study length 100 weeks): 10100 mg/kg/day
- TD50 (mouse, strain B6C3F1, males, inhaled, site: liver, lesion: hepatocellular adenoma + hepatocellular carcinoma + neoplastic nodule, dosed 100 weeks, study length 100 weeks): 34100 mg/kg/day
- TD50 (mouse, strain B6C3F1, males, inhaled, site: lung, lesion: alveolar/bronchiolar adenoma + alveolar/bronchiolar carcinoma, dosed 100 weeks, study length 100 weeks): 9910 mg/kg/day
- TD50 (mouse, strain B6C3F1, males, inhaled, site: lung, lesion: alveolar/bronchiolar adenoma, dosed 100 weeks, study length 100 weeks): 12700 mg/kg/day
- TD50 (rat, strain Fischer 344, females, inhaled, site: any site (literature study), lesion: several types, types named in the paper, dosed 102 weeks, study length 105 weeks): 2660 mg/kg/day
- TD50 (rat, strain Fischer 344, females, inhaled, site: brain, lesion: astrocytoma, malignant, dosed 102 weeks, study length 105 weeks): 21000 mg/kg/day
- TD50 (rat, strain Fischer 344, females, inhaled, site: uterus, lesion: endometrial stromal polyp, dosed 102 weeks, study length 105 weeks): 10200 mg/kg/day
- TD50 (rat, strain Fischer 344, males, inhaled, site: any site (literature study), lesion: several types, types named in the paper, dosed 102 weeks, study length 105 weeks): 1600 mg/kg/day
- TD50 (rat, strain Fischer 344, males, inhaled, site: liver, lesion: hepatocellular adenoma + hepatocellular carcinoma + neoplastic nodule, dosed 102 weeks, study length 105 weeks): 47700 mg/kg/day
- TD50 (rat, strain Fischer 344, males, inhaled, site: skin, lesion: basal-cell carcinoma + sebaceous adenoma + trichoepithelioma, dosed 102 weeks, study length 105 weeks): 3210 mg/kg/day
- TD50 (rat, strain Fischer 344, males, inhaled, site: skin, lesion: basal-cell carcinoma, dosed 102 weeks, study length 105 weeks): 4970 mg/kg/day

SMILES: O=C1C(c2[nH]c3ccc(S(=O)(=O)O)cc3c2O)=Nc2ccc(S(=O)(=O)O)cc21
- carcinogen call (mouse, strain Charles River CD1, females, in feed, site: liver, lesion: nodular hyperplasia, dosed 84 weeks, study length 84 weeks): negative (inactive)
- carcinogen call (mouse, strain Charles River CD1, females, in feed, site: lung, lesion: adenoma, dosed 84 weeks, study length 84 weeks): negative (inactive)
- TD50 (mouse, strain Charles River CD1, males, in feed, site: liver, lesion: nodular hyperplasia, dosed 84 weeks, study length 84 weeks): 20200 mg/kg/day (inactive)
- carcinogen call (mouse, strain Charles River CD1, males, in feed, site: lung, lesion: adenoma, dosed 84 weeks, study length 84 weeks): negative (inactive)
- TD50 (mouse, strain Charles River CD (Sprague-Dawley), females, in feed, site: any site (literature study), lesion: malignant tumor, dosed 100 weeks, study length 100 weeks): 33900 mg/kg/day (inactive)
- carcinogen call (mouse, strain Charles River CD (Sprague-Dawley), females, in feed, site: any site (literature study), lesion: several types, types named in the paper, dosed 100 weeks, study length 100 weeks): negative (inactive)
- TD50 (mouse, strain Charles River CD (Sprague-Dawley), males, in feed, site: any site (literature study), lesion: malignant tumor, dosed 95 weeks, study length 95 weeks): 57100 mg/kg/day (inactive)
- TD50 (mouse, strain Charles River CD (Sprague-Dawley), males, in feed, site: any site (literature study), lesion: several types, types named in the paper, dosed 95 weeks, study length 95 weeks): 23400 mg/kg/day (inactive)
- TD50 (rat, strain Osborne-Mendel, both sexes, in feed, site: any site (literature study), lesion: several types, types named in the paper, dosed 104 weeks, study length 104 weeks): 5430 mg/kg/day (inactive)

SMILES: CCCCN(CCCCO)N=O
- TD50 (rat, strain F344/DuCrj, males, in drinking water, site: liver, lesion: hyperplastic nodule, dosed 106 weeks, study length 112 weeks): 0.169 mg/kg/day
- TD50 (rat, strain F344/DuCrj, males, in drinking water, site: urinary bladder, lesion: papilloma, dosed 106 weeks, study length 112 weeks): 0.447 mg/kg/day
- TD50 (rat, strain F344/DuCrj, males, in drinking water, site: urinary bladder, lesion: transitional-cell carcinoma, dosed 106 weeks, study length 112 weeks): 0.432 mg/kg/day
- carcinogen call (rat, strain Fischer 344, females, in feed, site: urinary bladder, lesion: carcinoma, dosed 103 weeks, study length 103 weeks): positive
- TD50 (rat, strain Fischer 344, males, in drinking water, site: testis, lesion: Leydig-cell tumor, dosed 78 weeks, study length 78 weeks): 0.386 mg/kg/day
- TD50 (rat, strain Fischer 344, males, in drinking water, site: urinary bladder, lesion: transitional-cell carcinoma, dosed 78 weeks, study length 78 weeks): 0.175 mg/kg/day
- TD50 (rat, strain Fischer 344, males, in feed, site: liver, lesion: hepatocellular carcinoma, dosed 103 weeks, study length 103 weeks): 185 mg/kg/day
- TD50 (rat, strain Fischer 344, males, in feed, site: urinary bladder, lesion: carcinoma, dosed 103 weeks, study length 103 weeks): 0.549 mg/kg/day
- TD50 (rat, strain Sprague-Dawley, males, by gavage, site: lung, lesion: carcinoma, dosed 39 weeks, study length 74 weeks): 166 mg/kg/day
- TD50 (rat, strain Sprague-Dawley, males, by gavage, site: urinary bladder, lesion: several types, types named in the paper, dosed 39 weeks, study length 74 weeks): 1.17 mg/kg/day
- TD50 (rat, strain Sprague-Dawley, males, in drinking water, site: liver, lesion: liver-cell carcinoma, dosed 104 weeks, study length 104 weeks): 271 mg/kg/day
- TD50 (rat, strain Sprague-Dawley, males, in drinking water, site: urinary bladder, lesion: carcinoma, dosed 104 weeks, study length 104 weeks): 3.3 mg/kg/day

SMILES: CC=CCl
- TD50 (mouse, strain Ha/ICR, females, by gavage, site: forestomach, lesion: one or several types, types not named, dosed 89 weeks, study length 89 weeks): 5.05 mg/kg/day
- TD50 (mouse, strain Ha/ICR, males, by gavage, site: forestomach, lesion: one or several types, types not named, dosed 89 weeks, study length 89 weeks): 16.7 mg/kg/day

SMILES: CC(C)N=[N+]([O-])C(C)C
- TD50 (rat, strain Sprague-Dawley, males, by gavage, site: liver, lesion: hepatocellular carcinoma, dosed 26 weeks, study length 77 weeks): 0.00736 mg/kg/day
- TD50 (rat, strain Sprague-Dawley, males, by gavage, site: skin, lesion: keratoacanthoma, dosed 26 weeks, study length 77 weeks): 0.00268 mg/kg/day

SMILES: Nc1cccc2c(N)cccc12
- TD50 [1]: 223 mg/kg/day
- TD50 (mouse, strain B6C3F1, females, in feed, site: liver + lung + thyroid gland, lesion: hepatocellular adenoma + hepatocellular carcinoma + alveolar/bronchiolar adenoma + alveolar/bronchiolar carcinoma + c-cell adeno, dosed 103 weeks, study length 105 weeks): 66.6 mg/kg/day
- TD50 [2]: 129 mg/kg/day
- TD50 [3]: 129 mg/kg/day
- TD50 (mouse, strain B6C3F1, females, in feed, site: liver, lesion: hepatocellular carcinoma, dosed 103 weeks, study length 105 weeks): 115 mg/kg/day
- TD50 (mouse, strain B6C3F1, females, in feed, site: lung, lesion: alveolar/bronchiolar adenoma + alveolar/bronchiolar carcinoma, dosed 103 weeks, study length 105 weeks): 331 mg/kg/day
- TD50 (mouse, strain B6C3F1, females, in feed, site: thyroid gland, lesion: c-cell adenoma + c-cell carcinoma, dosed 103 weeks, study length 105 weeks): 936 mg/kg/day
- TD50 (mouse, strain B6C3F1, females, in feed, site: thyroid gland, lesion: c-cell carcinoma, dosed 103 weeks, study length 105 weeks): 1320 mg/kg/day
- TD50 (mouse, strain B6C3F1, females, in feed, site: thyroid gland, lesion: follicular-cell adenoma + papillary cystadenoma, NOS + papillary adenoma, dosed 103 weeks, study length 105 weeks): 327 mg/kg/day
- TD50 (mouse, strain B6C3F1, males, in feed, site: any site (literature study), lesion: several types, types named in the paper, dosed 103 weeks, study length 105 weeks): 583 mg/kg/day
- TD50 (mouse, strain B6C3F1, males, in feed, site: liver, lesion: hepatocellular adenoma + hepatocellular carcinoma + neoplastic nodule, dosed 103 weeks, study length 105 weeks): 1640 mg/kg/day
- TD50 (mouse, strain B6C3F1, males, in feed, site: thyroid gland, lesion: c-cell adenoma + c-cell carcinoma + follicular-cell adenoma + papillary cystadenoma, NOS + papillary adenoma, dosed 103 weeks, study length 105 weeks): 217 mg/kg/day
- TD50 (mouse, strain B6C3F1, males, in feed, site: thyroid gland, lesion: c-cell adenoma + c-cell carcinoma, dosed 103 weeks, study length 105 weeks): 1260 mg/kg/day
- TD50 (mouse, strain B6C3F1, males, in feed, site: thyroid gland, lesion: c-cell carcinoma, dosed 103 weeks, study length 105 weeks): 1910 mg/kg/day
- TD50 (mouse, strain B6C3F1, males, in feed, site: thyroid gland, lesion: follicular-cell adenoma + papillary cystadenoma, NOS + papillary adenoma, dosed 103 weeks, study length 105 weeks): 276 mg/kg/day
- TD50 (rat, strain Fischer 344, females, in feed, site: any site (literature study), lesion: several types, types named in the paper, dosed 103 weeks, study length 106 weeks): 55.8 mg/kg/day
- TD50 (rat, strain Fischer 344, females, in feed, site: clitoral gland + uterus, lesion: adenoma, NOS + carcinoma, NOS + endometrial stromal polyp, dosed 103 weeks, study length 106 weeks): 50.8 mg/kg/day
- TD50 (rat, strain Fischer 344, females, in feed, site: clitoral gland, lesion: adenoma, NOS + carcinoma, NOS, dosed 103 weeks, study length 106 weeks): 137 mg/kg/day
- TD50 (rat, strain Fischer 344, females, in feed, site: liver, lesion: hepatocellular adenoma + hepatocellular carcinoma + neoplastic nodule, dosed 103 weeks, study length 106 weeks): 236 mg/kg/day
- TD50 (rat, strain Fischer 344, females, in feed, site: thyroid gland, lesion: c-cell adenoma + c-cell carcinoma, dosed 103 weeks, study length 106 weeks): 57.6 mg/kg/day
- TD50 (rat, strain Fischer 344, females, in feed, site: uterus, lesion: endometrial stromal polyp, dosed 103 weeks, study length 106 weeks): 69.6 mg/kg/day
- TD50 (rat, strain Fischer 344, males, in feed, site: any site (literature study), lesion: several types, types named in the paper, dosed 103 weeks, study length 106 weeks): 48.1 mg/kg/day (inactive)
- TD50 (rat, strain Fischer 344, males, in feed, site: liver, lesion: hepatocellular adenoma + hepatocellular carcinoma + neoplastic nodule, dosed 103 weeks, study length 106 weeks): 1040 mg/kg/day
